The values below come from ChEMBL document CHEMBL3734715, “Synthesis and antiproliferativeactivity of new vinca alkaloids containing an α,β-unsaturated aromatic side chain” (Bioorg Med Chem Lett, 2015).

Format in all cases: functional, cell-based
The subject of one assay is KB. In words: Cytotoxicity against human KB cells after 72 hrs by SRB assay. On the technique in general: The SRB assay estimates cell density from bound dye.
In another assay the test system is Lu1. Put plainly: Cytotoxicity against human Lu1 cells after 72 hrs by SRB assay. Particulars: Lu1, 72 h.
The subject of a further assay is HepG2. Put plainly: Cytotoxicity against human HepG2 cells after 72 hrs by SRB assay. Particulars: HepG2, 72 h.
For a further assay, the system named is MCF7. In words: Cytotoxicity against human MCF7 cells after 72 hrs by SRB assay. Particulars: MCF7, 72 h.

Structures are written as SMILES. Counter-ions that a name gives are not always drawn.

One may read the IC50 as the concentration that inhibits the measured activity by half.

With `CC[C@]1(O)C[C@@H]2C[C@](C(=O)OC)(c3cc4c(cc3OC)N(C=O)[C@H]3[C@@](O)(C(=O)OC)[C@H](OC(C)=O)[C@]5(CC)C=CCN6CC[C@]43[C@@H]65)c3[nH]c4ccccc4c3CC[N@+](CC(=O)/C=C/c3ccc(O)c(OC)c3)(C2)C1`, the half-inhibitory concentration (IC50) with KB was determined as 1.67 µM; with Lu1 it was 3.45 µM; in the assay with HepG2, 2.44 µM; with MCF7 it was 3.08 µM.
For the compound `CC[C@]1(O)C[C@@H]2C[C@](C(=O)OC)(c3cc4c(cc3OC)N(C=O)[C@H]3[C@@](O)(C(=O)OC)[C@H](OC(C)=O)[C@]5(CC)C=CCN6CC[C@]43[C@@H]65)c3[nH]c4ccccc4c3CC[N@+](CC(=O)/C=C/c3ccc4ccccc4c3)(C2)C1`, the IC50 is 0.08 µM in the assay with KB, 12 µM with Lu1, 7.94 µM in the assay on HepG2 and 11 µM in the assay with MCF7.
On the same counts, the results for `CCC1=C[C@H]2CN(CCc3c([nH]c4ccccc34)[C@@](C(=O)OC)(c3cc4c(cc3OC)N(C)[C@H]3[C@@](O)(C(=O)OC)[C@H](OC(C)=O)[C@]5(CC)C=CCN6CC[C@]43[C@@H]65)C2)C1` are 2.06 µM, 5.98 µM, 4.53 µM and 4.63 µM.
For `CCC1=C[C@@H]2C[C@](C(=O)OC)(c3c(OC)cc(N)cc3OC)c3[nH]c4ccccc4c3CC[N@@+](CC(=O)/C=C/c3ccc(O)c(OC)c3)(C1)C2`, the IC50 came out at 9.11 µM in the assay on KB, 79 µM in the assay with Lu1, 86.8 µM in the assay on HepG2 and 94.5 µM in the assay on MCF7.
Take `CC[C@]1(O)C[C@@H]2C[C@](C(=O)OC)(c3cc4c(cc3OC)N(C)[C@H]3[C@@](O)(C(=O)OC)[C@H](OC(C)=O)[C@]5(CC)C=CCN6CC[C@]43[C@@H]65)c3[nH]c4ccccc4c3CC[N@+](CC(=O)/C=C/c3ccc(Cl)cc3)(C2)C1`: the IC50 in the assay with KB turned out to be 0.06 µM; with Lu1 it was 4.25 µM; in the assay on HepG2, 7.77 µM; in the assay with MCF7, 4.89 µM.
As to `CCC1=C[C@@H]2C[C@](C(=O)OC)(c3cc4c(cc3OC)N(C)[C@H]3[C@@](O)(C(=O)OC)[C@H](OC(C)=O)[C@]5(CC)C=CCN6CC[C@]43[C@@H]65)c3[nH]c4ccccc4c3CC[N@@+](CC(=O)/C=C/c3ccc4ccccc4c3)(C1)C2`, the IC50 with KB came to 0.64 µM; with Lu1 it was 3.71 µM; in the assay with HepG2, 4.31 µM; in the assay on MCF7 it was 4.82 µM.
Consider `CC[C@]1(O)C[C@@H]2C[C@](C(=O)OC)(c3cc4c(cc3OC)N(C)[C@H]3[C@@](O)(C(=O)OC)[C@H](OC(C)=O)[C@]5(CC)C=CCN6CC[C@]43[C@@H]65)c3[nH]c4ccccc4c3CC[N@+](CC(=O)/C=C/c3ccc(O)c(OC)c3)(C2)C1`, for which the IC50 turned out to be 1.69 µM in the assay on KB, 4.8 µM with Lu1, 7.23 µM in the assay with HepG2 and 12.5 µM with MCF7.
For `CCC1=C[C@@H]2C[C@](C(=O)OC)(c3c(OC)cc(N)cc3OC)c3[nH]c4ccccc4c3CC[N@@+](CC(=O)/C=C/c3ccc(Cl)cc3)(C1)C2` the same measures were 6.12 µM, 13.8 µM, 20.2 µM and 17.9 µM.
On the same counts, the results for `CC[C@]1(O)C[C@@H]2C[C@](C(=O)OC)(c3cc4c(cc3OC)N(C=O)[C@H]3[C@@](O)(C(=O)OC)[C@H](OC(C)=O)[C@]5(CC)C=CCN6CC[C@]43[C@@H]65)c3[nH]c4ccccc4c3CC[N@+](CC(=O)/C=C/c3ccc(Cl)cc3)(C2)C1` are 0.03 µM, 13.8 µM, 14.2 µM and 10.9 µM.
On the same counts, the results for `CCC1=C[C@@H]2C[C@](C(=O)OC)(c3c(OC)cc(N)cc3OC)c3[nH]c4ccccc4c3CC[N@@+](CC(=O)/C=C/c3ccc4ccccc4c3)(C1)C2` are 4.16 µM, 8.34 µM, 10.9 µM and 11.9 µM.
On to `CC[C@]1(O)C[C@@H]2C[C@](C(=O)OC)(c3cc4c(cc3OC)N(C)[C@H]3[C@@](O)(C(=O)OC)[C@H](OC(C)=O)[C@]5(CC)C=CCN6CC[C@]43[C@@H]65)c3[nH]c4ccccc4c3CC[N@+](CC(=O)/C=C/c3ccc4ccccc4c3)(C2)C1`, for which the IC50 in the assay on KB is 0.03 µM; in the assay on Lu1, 15.1 µM; in the assay on HepG2 it was 18.1 µM; with MCF7, 13.7 µM.
Regarding `CCC1=C[C@H]2CN(CCc3c([nH]c4ccccc34)[C@@](C(=O)OC)(c3c(OC)cc(N)cc3OC)C2)C1`, the IC50 in the assay with KB came out at 11.5 µM; with Lu1, 19.4 µM; with HepG2, 20.4 µM; in the assay with MCF7, 21 µM.
On to `CC[C@]1(O)C[C@H]2CN(CCc3c([nH]c4ccccc34)[C@@](C(=O)OC)(c3cc4c(cc3OC)N(C=O)[C@H]3[C@@](O)(C(=O)OC)[C@H](OC(C)=O)[C@]5(CC)C=CCN6CC[C@]43[C@@H]65)C2)C1` [VINCRISTINE SULFATE], for which the IC50 came out at 0.02 µM in the assay with KB, 0.48 µM in the assay on Lu1, 0.69 µM with HepG2 and 0.51 µM with MCF7.
For `CCC1=C[C@@H]2C[C@](C(=O)OC)(c3cc4c(cc3OC)N(C)[C@H]3[C@@](O)(C(=O)OC)[C@H](OC(C)=O)[C@]5(CC)C=CCN6CC[C@]43[C@@H]65)c3[nH]c4ccccc4c3CC[N@@+](CC(=O)/C=C/c3ccc(Cl)cc3)(C1)C2` the same measures were 0.28 µM, 1.31 µM, 1.75 µM and 1.83 µM.
For `CCC1=C[C@@H]2C[C@](C(=O)OC)(c3cc4c(cc3OC)N(C)[C@H]3[C@@](O)(C(=O)OC)[C@H](OC(C)=O)[C@]5(CC)C=CCN6CC[C@]43[C@@H]65)c3[nH]c4ccccc4c3CC[N@@+](CC(=O)/C=C/c3ccc(O)c(OC)c3)(C1)C2`, the IC50 with KB worked out at 0.64 µM; with Lu1 it was 57.5 µM; in the assay with HepG2, 51.5 µM; with MCF7, 50.5 µM.
For `Cc1c2ccncc2c(C)c2c1[nH]c1ccccc12` [ELLIPTECINE] the same measures were 1.66 µM, 2.31 µM, 2.07 µM and 1.54 µM.
On the same counts, the results for `CC[C@]1(O)C[C@H]2CN(CCc3c([nH]c4ccccc34)[C@@](C(=O)OC)(c3cc4c(cc3OC)N(C)[C@H]3[C@@](O)(C(=O)OC)[C@H](OC(C)=O)[C@]5(CC)C=CCN6CC[C@]43[C@@H]65)C2)C1` are 0.02 µM, 0.47 µM, 0.34 µM and 0.23 µM.
